According to patent publication US5001142A, “1-substituted-2-(3-amino-1-propynyl)pyrrolidine derivatives” (American Cyanamid Company, priority 1989, dated 1991):
Where a name gives a salt, the structure may show the parent alone.

Tests used:
[1] = target: muscarinic cholinergic receptor; assay: [^3 H] Quinuclidinyl Benzilate (^3 H-QNB) Binding Assay; conditions: rat cerebral cortex, ^3 H-QNB 0.25 nM, 25° C., 120 minutes, pH 7.4
[2] = target: muscarinic cholinergic receptor; assay: [^3 H]-Cis-methyldioxolane (^3 H-CD) Binding Assay (High Affinity); conditions: rat cerebral cortex, ^3 H-CD 1.0 nM, 25° C., 120 minutes, pH 7.4, high affinity agonist conformation
presynaptic cholinergic = conditions: should disinhibit the release of endogenous acetylcholine; cited from earlier work
muscarinic sites = conditions: cited from earlier work
postsynaptic cholinergic = conditions: should mimic the effects of acetylcholine; cited from earlier work
SDAT patients = conditions: compared to the anticholinesterase inhibitor physostigmine; cited from earlier work
aged monkey = conditions: aged monkeys; cited from earlier work

| Structure (SMILES) | IC50 [1] [µM] | IC50 [2] [µM] | further results |
| --- | --- | --- | --- |
| CS(=O)(=O)N1CCC[C@H]1C#CCN1CCCC1 [(S)-1-(Methylsulfonyl)-2-[3-(1-pyrrolidinyl]-1-propynyl]pyrrolidine] | 43 | 6.78 | – |
| CC(=O)N1CCC[C@@H]1C#CCN1CCCC1 [(R)-1-Acetyl-2-[3-(1-pyrrolidinyl)-1-propynyl]pyrrolidine] | 8.8 | 0.78 | – |
| O=C(N1CCC[C@H]1C#CCN1CCCC1)C(F)(F)F [(S)-2-[3-(1-Pyrrolidinyl)-1-propynyl]1-trifluoroacetyl) pyrrolidine, hydrochloride] | – | – | IC50 ([1]; hydrochloride): 16 µM; IC50 ([2]; hydrochloride): 3.83 µM |
| C(#C[C@H]1CCCN1)CN1CCCC1 [(R)-1-[3-(2-Pyrrolidinyl)-2-propynyl] pyrrolidine, dihydrochloride] | – | – | IC50 ([1]; dihydrochloride): 2.7 µM; IC50 ([2]; dihydrochloride): 0.742 µM |
| O=C(N1CCC[C@@H]1C#CCN1CCCC1)C(F)(F)F [(R)-2-[3-(1-Pyrrolidinyl)-1-propynyl]-1-(trifluoroacetyl)pyrrolidine] | 40 | 2.58 | – |
| CS(=O)(=O)N1CCC[C@@H]1C#CCN1CCCC1 [(R)-1-(Methylsulfonyl)-2-[3-(1-pyrrolidinyl)-1-propynyl]pyrrolidine, hydrochloride] | – | – | IC50 ([1]; hydrochloride): 25 µM; IC50 ([2]; hydrochloride): 2.45 µM |
| CC(C)(C)OC(=O)N1CCC[C@@H]1C#CCN1CCCC1 [(R)-2-[3-(1-Pyrrolidinyl)-1-propynyl]-1-pyrrolidine-carboxylic acid, 1,1-dimethylethyl ester] | 6.5 | 0.029 | – |
| O=CN1CCC[C@H]1C#CCN1CCCC1 [(S)-2-[3-(1-Pyrrolidinyl)-1-propynyl]-1-pyrrolidinecarboxaldehyde] | 65 | 5.24 | – |
| O=CN1CCC[C@@H]1C#CCN1CCCC1 [(R)-2-(3-(1-Pyrrolidinyl)-1-propynyl]-1-pyrrolidine-carboxaldehyde] | 34 | 3.58 | – |
| CC(=O)N(C)C(C)C#CCN1CCCC1 (stereo not drawn) [BM-5, N-methyl-N-(1-methyl-4-pyrrolidino-2-butynyl)acetamide] | – | – | presynaptic cholinergic action (presynaptic cholinergic): presynaptic cholinergic antagonist; antagonist/agonist action at muscarinic sites (muscarinic sites): antagonist at some muscarinic sites while being an agonist at most others; postsynaptic cholinergic action (postsynaptic cholinergic): postsynaptic partial cholinergic agonist |
| COC(=O)C1=CCCN(C)C1 [arecoline] | – | – | improvement in SDAT patients compared to physostigmine (SDAT patients): more-consistent improvement; improvement in performance (aged monkey): significant improvement in performance |
| CC(C)(C)OC(=O)N1CCC[C@H]1C#CCN1CCCC1 [(S)-2-[3-(1-Pyrrolidinyl)-1-propynyl]1-pyrrolidine-carboxylic acid, 1,1-dimethylethyl ester] | 4.2 | 0.247 | – |
| CS(=O)(=O)N1CCC[C@H]1C#CCN1CCCC1 [(S)-1-(Methylsulfonyl)-2-[3-(1-pyrrolidinyl)-1propynyl]pyrrolidine, hydrochloride] | – | – | IC50 ([1]; hydrochloride): 47 µM; IC50 ([2]; hydrochloride): 8.08 µM |
| O=CN1CCC[C@H]1C#CCN1CCCC1 [(S)-2-[3-(1-Pyrrolidinyl)-1-propynyl]1-pyrrolidine-carboxaldehyde, hydrochloride] | – | – | IC50 ([1]; hydrochloride): 88 µM; IC50 ([2]; hydrochloride): 11.1 µM |
| C(#C[C@H]1CCCN1)CN1CCCC1 [(R)-1-[3-(2-Pyrrolidinyl)-2-propynyl]pyrrolidine] | 3.1 | 0.514 | – |
| CC(=O)N1CCC[C@H]1C#CCN1CCCC1 [(S)-1-Acetyl-2-[3-(1-pyrrolidinyl)-1-propynly]-pyrrolidine, hydrochloride] | – | – | IC50 ([1]; hydrochloride): 73 µM; IC50 ([2]; hydrochloride): 3.26 µM |
| O=C(N1CCC[C@H]1C#CCN1CCCC1)C(F)(F)F [(S)-2-[3-(1-Pyrrolidinyl)-1-propynyl]-1-(trifluoroacetyl)pyrrolidine] | 18 | 5.47 | – |
| O=C1CCCN1CC#CCN1CCCC1 [oxotremorine] | – | – | improvement in performance (aged monkey): significant improvement in performance |
| CS(=O)(=O)N1CCC[C@@H]1C#CCN1CCCC1 [(R)-1-(Methylsulfonyl)-2-[3-(1-pyrrolidinyl)-1-propynyl]pyrrolidine] | 23 | 0.973 | – |
| O=C(N1CCC[C@@H]1C#CCN1CCCC1)C(F)(F)F [(R)-2-[3-(1-Pyrrolidinyl)-1-propynyl]-1-(trifluoroacetyl)pyrrolidine, dihydrochloride] | – | – | IC50 ([1]; dihydrochloride): 43 µM; IC50 ([2]; dihydrochloride): 8.57 µM |
| CC(=O)N1CCC[C@H]1C#CCN1CCCC1 [(S)-1-Acetyl-2-[3-(1-pyrrolidinyl)-1-propynyl]pyrrolidine] | 76 | 2.71 | – |
